Measurements: patent US4283409A, “Imidazolone derivatives” (Pfizer Inc., priority 1979, dated 1981)

Columns and labels:
[1] = system: sorbitol accumulation in the sciatic nerve of streptozotocinized (i.e., diabetic) rats; test: sorbitol accumulation in the sciatic nerve of streptozotocinized (diabetic) rats; type: in vivo
Protocol: (§1) The activity of the compounds of the present invention, as agents for the control of chronic diabetic complications, is determined by their ability to successfully pass one or more of the following standard biologically and/or pharmacological tests, viz., (1) measuring their ability to reduce or inhibit sorbitol accumulation in the sciatic nerve of acutely streptozotocinized (i.e., diabetic) rats; (2) measuring their ability to reverse already-elevated sorbitol levels in the sciatic nerve and lens of chronic streptozotocin-induced diabetic rats; (3) measuring their ability to prevent or inhibit galactitol formation in the lens of acutely galactosemic rats, and (4) measuring their ability to delay cataract formation and reduce the severity of lens opacities in chronic galactosemic rats.
The final product of Example 1, viz., 3',4'-dihydro-spiro-[imidazolidine-4,1'(2'H)naphthalene]-5-one, was tested for its ability to reduce or inhibit sorbitol accumulation in the sciatic nerve of streptozotocinized (i.e., diabetic rats) by the procedure essentially described in U.S. Pat. No. 3,821,383. In the present study, the amount of sorbitol accumulation in the sciatic nerves was measured 27 hours after the induction of diabetes. The compound was then administered orally at 25 mg./kg. at intervals of 4, 8 and 24 hours after the administration of streptozotocin. The results obtained in this manner are clearly presented in terms of the percent inhibition (%) afforded by the test compound as compared to the case where no compound was administered (i.e., the control or untreated animal where sorbitol levels normally rise from approximately […]. tissue to as high as 400 mM/g. tissue in the 27-hour test period).

[2] = system: galactitol levels in the lens of galactosemic subjects; test: galactitol levels in the lens of galactosemic subjects; type: in vivo, rats; conditions: summary statement, no dose given
Protocol: as §1

## O=C1NCNC12CCCc1ccccc12 (stereo not shown) [Example 1, 3',4'-dihydro-spiro-[imidazolidine-4,1'(2'H)naphthalene]-5-one]
[1]; diabetic rats, oral 25 mg./kg. at 4, 8 and 24 hours after streptozotocin, sorbitol measured 27 hours after induction of diabetes, vs untreated control
  percent inhibition of sorbitol accumulation in the sciatic nerve: 52%
[1]; diabetic rats, oral route, dose level of 25 mg./kg.
  signs of toxic side effects: without showing any substantial signs of toxic side effects
[1]; summary statement, no dose given
  lowering sorbitol levels in the lens and sciatic nerve of diabetic subjects: remarkably effective
[2]
  lowering galactitol levels in the lens of galactosemic subjects: remarkably effective
